# How the values were obtained:
# Btk = biological target: T1, Btk (Homo sapiens, UniProt Q06187); assay: Btk kinase assay (ADP-Glo); assay type: biochemical; settings: ADP-Glo Btk kinase assay kit; ATP 1.2 μM; 60 minutes at room temperature
# T1 construct: purchased Promega (Madison, Wis.)
# How it was run: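 Luminescent ADP detection after a 60 min reaction at 22±1 °C containing Btk 2 ng/μl, 1.2 μM ATP, 0.3 μM poly GT peptide and 1.4 mM MnCl2. IC50 from log concentration versus percent inhibition relative to DMSO vehicle.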
# TMD-8 cells = assay: Cell proliferation assay (CellTiter-Glo), TMD-8 cells; assay type: cell-based; settings: Homo sapiens, TMD8, 120 h, 5-day treatment, read-out: TMD8 cell growth (GI50 μM)
# How it was run: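 TMD-8 cells seeded at 5,000–10,000/well, cultured overnight, then exposed to compound (vehicle 0.5% DMSO) for 5 days at 37 °C. Growth read by CellTiter-Glo luminescence; IC50 from log concentration versus % growth inhibition relative to vehicle.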
# T1 sequence (Q06187 whole entry): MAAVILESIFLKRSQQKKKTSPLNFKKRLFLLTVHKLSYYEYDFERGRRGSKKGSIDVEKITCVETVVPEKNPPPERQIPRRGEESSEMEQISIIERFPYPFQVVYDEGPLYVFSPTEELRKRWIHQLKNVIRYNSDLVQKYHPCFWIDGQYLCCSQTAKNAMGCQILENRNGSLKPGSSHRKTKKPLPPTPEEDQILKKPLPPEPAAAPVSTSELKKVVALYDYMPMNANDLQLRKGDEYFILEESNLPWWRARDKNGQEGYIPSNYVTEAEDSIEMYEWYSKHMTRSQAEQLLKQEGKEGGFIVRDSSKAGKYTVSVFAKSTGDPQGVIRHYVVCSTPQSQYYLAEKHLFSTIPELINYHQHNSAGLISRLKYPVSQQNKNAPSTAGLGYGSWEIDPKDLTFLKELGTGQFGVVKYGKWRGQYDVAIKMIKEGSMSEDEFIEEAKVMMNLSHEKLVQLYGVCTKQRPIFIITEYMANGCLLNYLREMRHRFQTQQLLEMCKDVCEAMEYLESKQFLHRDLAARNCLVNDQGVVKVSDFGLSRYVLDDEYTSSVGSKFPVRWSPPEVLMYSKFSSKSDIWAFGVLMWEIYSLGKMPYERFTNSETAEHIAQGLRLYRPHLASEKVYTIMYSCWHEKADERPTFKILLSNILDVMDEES
IC50 (Btk) [µM],SMILES,GI50 (TMD-8 cells) [µM]
0.0003,"C=CC(=O)Nc1cccc(Nc2ncnc3[nH]c(C#Cc4ccccc4)cc23)c1 [Example 103, N-(3-((6-(phenylethynyl)-7H-pyrrolo[2,3-d]pyrimidin-4-yl)amino)phenyl)acrylamide]",0.079
0.006,"C=CC(=O)Nc1cccc(Nc2ncnc3[nH]c(C#Cc4ccsc4)cc23)c1 [Example 104, N-(3-((6-(thiophen-3-ylethynyl)-7H-pyrrolo[2,3-d]pyrimidin-4-yl)amino)phenyl)acrylamide]",0.017
0.155,"C=CC(=O)Nc1cccc(Nc2ncnc3[nH]c(C#Cc4ccc(Cl)cc4)cc23)c1 [Example 105, N-(3-((6-((4-chlorophenyl)ethynyl)-7H-pyrrolo[2,3-d]pyrimidin-4-yl)amino)phenyl)acrylamide]",0.048

# Source: US10144737B2 (ETERNITY BIOSCIENCE INC., priority 2014, dated 2018)
